From ChEMBL document CHEMBL5149962, “Targeting KRAS mutant cancers by preventing signaling transduction in the MAPK pathway” (Eur J Med Chem, 2021)

Legend:
GTPase KRas [1] = molecular target: T1, GTPase KRas (Homo sapiens, UniProt P01116, G12V); assay: Binding affinity to GDP-bound KRAS G12V RAS mutant (unknown origin)
GTPase HRas = GTPase HRas (Homo sapiens, UniProt P01112); assay: Inhibition of human p21 h-RAS assessed as reduction in C-Cdc25 stimulated nucleotide exchange by luminescence spectrometer based analysis
GTPase KRas [2] = molecular target: GTPase KRas (Homo sapiens, UniProt P01116); assay: Binding affinity to KRAS (unknown origin) assessed as dissociation constant
[3] = Binding affinity to human FPTase assessed as inhibition constant
[4] = Lipophilicity, logP of the compound; assay type: physicochemical; details: octanol/water
HCT-116 [5] = assay: Antiproliferative activity against human HCT-116 cells harboring KRAS G13D mutant assessed as cell growth inhibition measured after 96 hrs by MTT assay; assay type: functional
[6] = Inhibition of human N-terminal His-tagged recombinant wild-type KRAS (1 to 156 residues) expressed in Escherichia coli BL21 (DE3)/SAH-SOS1A by fluorescence based polarization assay
[7] = molecular target: Protein farnesyltransferase subunit beta (Homo sapiens, UniProt P49356); assay: Displacement of M [3H] farnesyl diphosphate from human PFTase expressed in Escherichia coli
[8] = Inhibition of GDP-tagged human RAS (1 to 166 residue) incubated for 20 mins by using Centricon-10 micro concentrators analysis
GTPase KRas [9] = molecular target: GTPase KRas (Homo sapiens, UniProt P01116, G12C); assay: Inhibition of KRAS G12C mutant (unknown origin)
[10] = Inhibition of HRAS […] mutant (unknown origin) expressed in mouse NIH3T3 cells assessed as inhibition of post-translational modification processing; assay type: cell-based, Homo sapiens
GTPase KRas [11] = molecular target: T1, GTPase KRas; assay: Inhibition of KRAS G12V mutant (unknown origin) expressed in mouse NIH3T3 cells assessed as inhibition of post-translational modification processing; assay type: cell-based
HCT-116 [12] = assay: Antitumor activity against human HCT-116 cells xenografted in BALB/c nude mouse assessed as reduction in tumor size at 100 mg/kg measured twice a week for 21 days relative to control; assay type: functional; set-up: scale not given: the % may be the effect or the level left; details: time 21 day
HT-1080 = assay: Antitumor activity against human HT-1080 cells xenografted in BALB/c nude mouse assessed as reduction in tumor size at 100 mg/kg measured twice a week for 21 days relative to control; assay type: functional; set-up: scale not given: the % may be the effect or the level left; details: time 21 day

T1 sequence (P01116 whole entry G12V): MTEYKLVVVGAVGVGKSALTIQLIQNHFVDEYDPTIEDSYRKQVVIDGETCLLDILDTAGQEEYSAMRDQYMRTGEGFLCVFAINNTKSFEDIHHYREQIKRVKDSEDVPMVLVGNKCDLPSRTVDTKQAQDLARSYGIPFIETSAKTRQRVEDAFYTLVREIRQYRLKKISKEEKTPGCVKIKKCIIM
Sequence of GTPase KRas (Homo sapiens, UniProt P01116) (P01116 whole entry): as the sequence (P01116 whole entry G12V) above, with V12G counted along it
Sequence of Protein farnesyltransferase subunit beta (P49356 whole entry): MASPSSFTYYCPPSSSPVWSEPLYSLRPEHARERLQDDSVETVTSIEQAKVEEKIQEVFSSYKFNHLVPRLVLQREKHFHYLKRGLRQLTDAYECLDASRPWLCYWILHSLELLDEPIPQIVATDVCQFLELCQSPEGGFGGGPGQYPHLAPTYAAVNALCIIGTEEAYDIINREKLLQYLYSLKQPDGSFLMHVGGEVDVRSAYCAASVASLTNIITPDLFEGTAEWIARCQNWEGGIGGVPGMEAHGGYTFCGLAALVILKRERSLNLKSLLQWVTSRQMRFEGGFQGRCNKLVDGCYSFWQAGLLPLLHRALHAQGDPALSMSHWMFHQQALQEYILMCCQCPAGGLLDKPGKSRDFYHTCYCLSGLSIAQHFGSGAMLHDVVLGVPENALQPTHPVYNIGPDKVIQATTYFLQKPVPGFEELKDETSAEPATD
Sequence of GTPase KRas (Homo sapiens, UniProt P01116, G12C) (P01116 whole entry G12C): as the sequence (P01116 whole entry G12V) above, with V12C counted along it
Sequence of GTPase HRas (P01112 whole entry): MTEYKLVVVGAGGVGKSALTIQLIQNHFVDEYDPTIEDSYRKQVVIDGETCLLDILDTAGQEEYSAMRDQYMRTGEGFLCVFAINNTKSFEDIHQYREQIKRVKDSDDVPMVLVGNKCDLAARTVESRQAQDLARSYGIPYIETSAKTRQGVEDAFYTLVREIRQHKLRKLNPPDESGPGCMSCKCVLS

Question: With O=S(=O)(c1ccc(NO)cc1)N(CCOc1ccc2ccccc2c1)[C@@H]1O[C@H](CO)[C@@H](O)[C@H](O)[C@H]1O as the compound, how does the IC50 (GTPase KRas [1]) read?
Answer: 0.7 µM

Question: Which results are given for O=S(=O)(NCCOc1ccc2ccccc2c1)c1ccc(NO)cc1?
Answer: IC50 (GTPase KRas [1]): 0.5 µM; IC50 (GTPase HRas): 56 µM

Question: Which Kd (GTPase KRas [2]) does the source give for Cc1[nH]c2cc(Cl)cc(Cl)c2c1CCN here?
Answer: 1100 µM

Question: With CC(C)=CCC/C(C)=C/CC/C(C)=C/C(O)P(=O)(O)O (centres undefined) as the compound, how does the Ki [3] read?
Answer: 0.0052 µM

Question: With C=C1CC[C@@H]2[C@]3(C)COC(c4cccc(Br)c4)O[C@@H]3CC[C@@]2(C)[C@@H]1C/C=C1/C(=O)OC[C@H]1O (some centres undefined) as the compound, how does the logP [4] read?
Answer: 2.6

Question: Which results are given for C=C1CC[C@@H]2[C@]3(C)COC(c4ccc(F)c(Br)c4)O[C@@H]3CC[C@@]2(C)[C@@H]1C/C=C1/C(=O)OC[C@H]1O (some centres undefined)?
Answer: GI50 (HCT-116 [5]): 4 µM; logP [4]: 2.6

Question: Which EC50 [6] does the source give for CC[C@H](C)[C@H](NC(=O)CNC(=O)[C@H](Cc1ccccc1)NC(=O)[C@@H](N)Cc1ccccc1)C(=O)N[C@@H](Cc1ccc(O)cc1)C(=O)N[C@@H](CC(C)C)C(=O)N[C@H](C(=O)N[C@@H](CC(N)=O)C(=O)N[C@@]1(C)CCC/C=C\CCC[C@@](C)(C(=O)N[C@@H](CCC(=O)O)C(=O)NCC(=O)N[C@@H](CC(N)=O)C(=O)O)NC(=O)[C@H]([C@@H](C)O)NC(=O)[C@H](CCCCN)NC(=O)[C@H](CC(C)C)NC1=O)[C@@H](C)O here?
Answer: 0.1 µM

Question: For CC[C@@H](C)[C@@H](CO[C@@H](Cc1ccccc1)C(=O)CC(CCS(C)(=O)=O)C(=O)O)NC[C@@H](N)CS (some centres undefined), which IC50 [7] is on record?
Answer: 0.0018 µM

Question: Which IC50 [8] does the source give for O=S(=O)(c1ccc(NO)cc1)N1CCC(=C2c3cc(Cl)ccc3CCc3cccnc32)CC1 here?
Answer: 0.9 µM

Question: Which IC50 (GTPase KRas [1]) does the source give for Nc1nc2c(ncn2CCN(CCOc2ccc3ccccc3c2)S(=O)(=O)c2ccc(NO)cc2)c(=O)[nH]1 here?
Answer: 0.5 µM

Question: Which IC50 (GTPase KRas [9]) does the source give for C=CC(=O)N1CCN(c2nc(NCCC(=O)N(C)C)nc3c(F)c(-c4cc(O)cc5ccccc45)c(Cl)cc23)CC1 here?
Answer: 0.726 µM

Question: For C=C1CC[C@@H]2[C@]3(C)COC(c4ccccc4Br)O[C@@H]3CC[C@@]2(C)[C@@H]1C/C=C1/C(=O)OC[C@H]1O (some centres undefined), which GI50 (HCT-116 [5]) is on record?
Answer: 3.1 µM

Question: And the logP [4]?
Answer: 2.6

Question: With CSCC[C@H](CC(=O)[C@H](/C=C\[C@@H](/C=C/[C@@H](N)CS)C(C)C)Cc1ccccc1)C(=O)O as the compound, how does the IC50 [10] read?
Answer: 0.5 µM

Question: And the IC50 (GTPase KRas [11])?
Answer: 25 µM

Question: For COC(=O)[C@H](CCSC)CC(=O)[C@H](/C=C\[C@@H](/C=C/[C@@H](N)CS)C(C)C)Cc1ccccc1, which Activity (HCT-116 [12]) is on record?
Answer: 20%

Question: What about the Activity (HT-1080) of the same compound?
Answer: 40%
